In patent US20230085307A1, “PYRIDAZINONE COMPOUND AND HERBICIDE” (NISSAN CHEMICAL CORPORATION, priority 2019, published 2023):

Columns and labels:
[1] = tested on: rice flat sedge; assay: Test Example 3: herbicidal effect by foliage application, Wagner pot (Table 18, symbol E); format: in vivo, rice flat sedge (Cyperus iria); details: 320 g/ha
Procedure, shortened: (§1)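 Plants were sown in alluvial soil held under 0.1–0.5 cm standing water and grown 14 days in a greenhouse at 25–30 °C. An emulsifiable formulation, water-diluted to the set dose, was then sprayed onto the foliage, and effects were scored three weeks later using previously defined criteria.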

[2] = tested on: blackgrass; assay: Test Example 4: herbicidal effect by soil treatment (Table 19, symbol J); format: in vivo, blackgrass (Alopecurus myosuroides); details: 320 g/ha
Procedure, shortened: (§2)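 Applied as a water-diluted emulsion, the compound was sprayed onto soil covering newly sown seeds. Evaluation came three weeks after application, in a greenhouse held at 25° C. to 30° C.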

[3] = tested on: Italian ryegrass; assay: Test Example 4: herbicidal effect by soil treatment (Table 19, symbol K); format: in vivo, Italian ryegrass (Lolium multiflorum); details: 320 g/ha
Procedure, shortened: as §2

[4] = tested on: Italian ryegrass; assay: Test Example 5: herbicidal effect by foliage application, plastic box (Table 20, symbol K); format: in vivo, Italian ryegrass (Lolium multiflorum); details: foliage application, 320 g/ha, evaluated three weeks after application
Procedure, shortened: (§3)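 Sow seeds spot-wise in sterilized diluvial soil; cover with ~1.5 cm soil. Grow 14 days in greenhouse, 25° C. to 30° C. Spray foliage with emulsion diluted to predetermined amount. Rate effect after 3 weeks.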

[5] = tested on: green foxtail; assay: Test Example 5: herbicidal effect by foliage application, plastic box (Table 20, symbol G); format: in vivo, green foxtail (Setaria viridis); details: foliage application, 320 g/ha, evaluated three weeks after application
Procedure, shortened: as §3

[6] = tested on: barnyard grass; assay: Test Example 5: herbicidal effect by foliage application, plastic box (Table 20, symbol H); format: in vivo, barnyard grass (Echinochloa crus-galli); details: foliage application, 320 g/ha, evaluated three weeks after application
Procedure, shortened: as §3

[7] = tested on: velvetleaf; assay: Test Example 5: herbicidal effect by foliage application, plastic box (Table 20, symbol M); format: in vivo, velvetleaf (Abutilon theophrasti); details: foliage application, 320 g/ha, evaluated three weeks after application
Procedure, shortened: as §3

[8] = tested on: blackgrass; assay: Test Example 5: herbicidal effect by foliage application, plastic box (Table 20, symbol J); format: in vivo, blackgrass (Alopecurus myosuroides); details: foliage application, 320 g/ha, evaluated three weeks after application
Procedure, shortened: as §3

[9] = tested on: southern crabgrass; assay: Test Example 4: herbicidal effect by soil treatment (Table 19, symbol F); format: in vivo, southern crabgrass (Digitaria ciliaris); details: 320 g/ha
Procedure, shortened: as §2

[10] = tested on: southern crabgrass; assay: Test Example 5: herbicidal effect by foliage application, plastic box (Table 20, symbol F); format: in vivo, southern crabgrass (Digitaria ciliaris); details: foliage application, 320 g/ha, evaluated three weeks after application
Procedure, shortened: as §3

[11] = tested on: wild oat; assay: Test Example 4: herbicidal effect by soil treatment (Table 19, symbol I); format: in vivo, wild oat (Avena fatua); details: 320 g/ha
Procedure, shortened: as §2

[12] = tested on: wild oat; assay: Test Example 5: herbicidal effect by foliage application, plastic box (Table 20, symbol I); format: in vivo, wild oat (Avena fatua); details: foliage application, 320 g/ha, evaluated three weeks after application
Procedure, shortened: as §3

[13] = tested on: lambsquarters; assay: Test Example 5: herbicidal effect by foliage application, plastic box (Table 20, symbol O); format: in vivo, lambsquarters (Chenopodium album); details: foliage application, 320 g/ha, evaluated three weeks after application
Procedure, shortened: as §3

[14] = tested on: redroot pigweed; assay: Test Example 5: herbicidal effect by foliage application, plastic box (Table 20, symbol N); format: in vivo, redroot pigweed (Amaranthus retroflexus); details: foliage application, 320 g/ha, evaluated three weeks after application
Procedure, shortened: as §3

[15] = tested on: velvetleaf; assay: Test Example 4: herbicidal effect by soil treatment (Table 19, symbol M); format: in vivo, velvetleaf (Abutilon theophrasti); details: 320 g/ha
Procedure, shortened: as §2

[16] = tested on: redroot pigweed; assay: Test Example 4: herbicidal effect by soil treatment (Table 19, symbol N); format: in vivo, redroot pigweed (Amaranthus retroflexus); details: 320 g/ha
Procedure, shortened: as §2

[17] = tested on: persian speedwell; assay: Test Example 5: herbicidal effect by foliage application, plastic box (Table 20, symbol R); format: in vivo, Persian speedwell (Veronica persica); details: foliage application, 320 g/ha, evaluated three weeks after application
Procedure, shortened: as §3

[18] = tested on: chickweed; assay: Test Example 5: herbicidal effect by foliage application, plastic box (Table 20, symbol P); format: in vivo, common chickweed (Stellaria media); details: foliage application, 320 g/ha, evaluated three weeks after application
Procedure, shortened: as §3

[19] = tested on: windgrass; assay: Test Example 4: herbicidal effect by soil treatment (Table 19, symbol L); format: in vivo, windgrass (Apera spica-venti); details: 320 g/ha
Procedure, shortened: as §2

[20] = tested on: lambsquarters; assay: Test Example 4: herbicidal effect by soil treatment (Table 19, symbol O); format: in vivo, lambsquarters (Chenopodium album); details: 320 g/ha
Procedure, shortened: as §2

[21] = tested on: barnyard grass; assay: Test Example 4: herbicidal effect by soil treatment (Table 19, symbol H); format: in vivo, barnyard grass (Echinochloa crus-galli); details: 320 g/ha
Procedure, shortened: as §2

[22] = tested on: persian speedwell; assay: Test Example 4: herbicidal effect by soil treatment (Table 19, symbol R); format: in vivo, Persian speedwell (Veronica persica); details: 320 g/ha
Procedure, shortened: as §2

[23] = tested on: Chinese sprangletop; assay: Test Example 3: herbicidal effect by foliage application, Wagner pot (Table 18, symbol D); format: in vivo, chinese sprangletop (Leptochloa chinensis); details: 320 g/ha
Procedure, shortened: as §1

[24] = tested on: barnyard grass; assay: Test Example 3: herbicidal effect by foliage application, Wagner pot (Table 18, symbol H); format: in vivo, barnyard grass (Echinochloa crus-galli); details: 320 g/ha
Procedure, shortened: as §1

[25] = tested on: windgrass; assay: Test Example 5: herbicidal effect by foliage application, plastic box (Table 20, symbol L); format: in vivo, windgrass (Apera spica-venti); details: foliage application, 320 g/ha, evaluated three weeks after application
Procedure, shortened: as §3

[26] = tested on: chickweed; assay: Test Example 4: herbicidal effect by soil treatment (Table 19, symbol P); format: in vivo, common chickweed (Stellaria media); details: 320 g/ha
Procedure, shortened: as §2

[27] = tested on: green foxtail; assay: Test Example 4: herbicidal effect by soil treatment (Table 19, symbol G); format: in vivo, green foxtail (Setaria viridis); details: 320 g/ha
Procedure, shortened: as §2

COc1ccc(-c2sc3ccc(F)cc3c2-c2c(O)c(C)nn(C)c2=O)cc1F [2-086]
herbicidal effect on E (rice flat sedge), rating 0-5 [1]: 5 (Herbicidal rate of 90% or more (almost completely withered))
herbicidal effect rating, J: blackgrass [2]: 0 (Herbicidal rate of 5% or less (almost no effect))
herbicidal effect rating, K: Italian ryegrass [3]: 0 (Herbicidal rate of 5% or less (almost no effect))
herbicidal effect on K: Italian ryegrass [4]: 0 (Herbicidal rate of 5% or less (almost no effect))
herbicidal effect on G: green foxtail [5]: 3 (Herbicidal rate of 40% or more and less than 70%)
herbicidal effect on H: barnyard grass [6]: 3 (Herbicidal rate of 40% or more and less than 70%)
herbicidal effect on M: velvetleaf [7]: 5 (Herbicidal rate of 90% or more (almost completely withered))
herbicidal effect on J: blackgrass [8]: 0 (Herbicidal rate of 5% or less (almost no effect))
herbicidal effect rating, F: southern crabgrass [9]: 1 (Herbicidal rate of 5% or more and less than 20%)
herbicidal effect on F: southern crabgrass [10]: 0 (Herbicidal rate of 5% or less (almost no effect))
herbicidal effect rating, I: wild oat [11]: 0 (Herbicidal rate of 5% or less (almost no effect))
herbicidal effect on I: wild oat [12]: 0 (Herbicidal rate of 5% or less (almost no effect))
herbicidal effect on O: lambsquarters [13]: 4 (Herbicidal rate of 70% or more and less than 90%)
herbicidal effect on N: redroot pigweed [14]: 4 (Herbicidal rate of 70% or more and less than 90%)
herbicidal effect rating, M: velvetleaf [15]: 4 (Herbicidal rate of 70% or more and less than 90%)
herbicidal effect rating, N: redroot pigweed [16]: 4 (Herbicidal rate of 70% or more and less than 90%)
herbicidal effect on R: persian speedwell [17]: 5 (Herbicidal rate of 90% or more (almost completely withered))
herbicidal effect on P: chickweed [18]: 5 (Herbicidal rate of 90% or more (almost completely withered))
herbicidal effect rating, L: windgrass [19]: 0 (Herbicidal rate of 5% or less (almost no effect))
herbicidal effect rating, O: lambsquarters [20]: 5 (Herbicidal rate of 90% or more (almost completely withered))
herbicidal effect rating, H: barnyard grass [21]: 3 (Herbicidal rate of 40% or more and less than 70%)
herbicidal effect rating, R: persian speedwell [22]: 5 (Herbicidal rate of 90% or more (almost completely withered))
herbicidal effect on D (Chinese sprangletop), rating 0-5 [23]: 3 (Herbicidal rate of 40% or more and less than 70%)
herbicidal effect on H (barnyard grass), rating 0-5 [24]: 3 (Herbicidal rate of 40% or more and less than 70%)
herbicidal effect on L: windgrass [25]: 0 (Herbicidal rate of 5% or less (almost no effect))
herbicidal effect rating, P: chickweed [26]: 0 (Herbicidal rate of 5% or less (almost no effect))
herbicidal effect rating, G: green foxtail [27]: 3 (Herbicidal rate of 40% or more and less than 70%)
